Experiments:
Test in all cases: relative viability (nuclei count vs DMSO), 5 days (fraction); higher = more cells survive
[1] = compound: CC[C@H](CO)Nc1nc(NCc2ccccc2)c2ncn(C(C)C)c2n1 [Seliciclib]
Outline: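 Viability was defined as treated-well nuclei divided by vehicle-well nuclei, with the median taken over replicate plates. Cells from lung cancer lines sat overnight at 37 °C in 1536-well plates, received five √10-spaced library-drug doses by pinning on vehicle-anchored plates, and grew 5 days without medium change before one-step fixation, permeabilisation and Hoechst staining, 4× imaging and MetaXpress nuclear counts. Only plates with control CV under 25% and at least one doubling were kept.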

[2] = compound: CC[C@H](CO)Nc1nc(NCc2ccccc2)c2ncn(C(C)C)c2n1 [Seliciclib] + Cc1cc(Nc2cc(N3CCN(C)CC3)nc(Sc3ccc(NC(=O)C4CC4)cc3)n2)n[nH]1 [Tozasertib] (partner 0.1 µM)
Outline: (§1)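 Dosing by pin tool came one day after lung cancer cell lines were seeded in 1536-well plates, using either one drug or a fixed anchor-drug dose plus five library-drug doses (not always all listed) in √10 steps. After 5 days, nuclei were counted on 4× images. Relative viability is treated-well nuclei count divided by vehicle-well nuclei count, and values are medians of duplicate plates.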

[3] = compound: CC[C@H](CO)Nc1nc(NCc2ccccc2)c2ncn(C(C)C)c2n1 [Seliciclib] + CC1(C)CCC(c2ccc(Cl)cc2)=C(CN2CCN(c3ccc(C(=O)NS(=O)(=O)c4ccc(N[C@H](CCN5CCOCC5)CSc5ccccc5)c(S(=O)(=O)C(F)(F)F)c4)cc3)CC2)C1 [Navitoclax] (partner 0.5 µM)
Outline: as §1

[4] = compound: CC[C@H](CO)Nc1nc(NCc2ccccc2)c2ncn(C(C)C)c2n1 [Seliciclib] + N=C(N)NC(=N)NCCc1ccccc1 [Phenformin] (partner 250 µM)
Outline: as §1

| Cell Line | relative viability ([1]; 0.08 µM) | relative viability ([1]; 0.253 µM) | relative viability ([1]; 0.8 µM) | relative viability ([1]; 2.53 µM) | relative viability ([1]; 8 µM) | relative viability ([2]; first compound 0.08 µM) | relative viability ([2]; first compound 0.253 µM) | relative viability ([2]; first compound 0.8 µM) | relative viability ([2]; first compound 2.53 µM) | relative viability ([2]; first compound 8 µM) | relative viability ([3]; first compound 0.08 µM) | relative viability ([3]; first compound 0.253 µM) | relative viability ([3]; first compound 0.8 µM) | relative viability ([3]; first compound 2.53 µM) | relative viability ([3]; first compound 8 µM) | relative viability ([4]; first compound 0.08 µM) | relative viability ([4]; first compound 0.253 µM) | relative viability ([4]; first compound 0.8 µM) | relative viability ([4]; first compound 2.53 µM) | relative viability ([4]; first compound 8 µM) |
| --- | --- | --- | --- | --- | --- | --- | --- | --- | --- | --- | --- | --- | --- | --- | --- | --- | --- | --- | --- | --- |
| NCI-H1651 | 1.01 | 0.974 | 0.958 | 0.895 | 0.906 | 0.664 | 0.623 | 0.652 | 0.778 | 0.542 | 0.947 | 0.965 | 0.863 | 1.14 | 0.887 | 0.339 | 0.366 | 0.317 | 0.277 | 0.249 |
| NCI-H1666 | 0.955 | 1.13 | 1.01 | 0.866 | 0.829 | 0.684 | 0.696 | 0.623 | 0.561 | 0.428 | 0.951 | 1.05 | 0.909 | 1.06 | 0.512 | 0.59 | 0.589 | 0.556 | 0.549 | 0.516 |
| NCI-H1734 | 1.02 | 0.802 | 1.04 | 0.812 | 0.741 | 0.269 | 0.245 | 0.277 | 0.247 | 0.257 | 0.847 | 0.733 | 0.834 | 0.879 | 0.808 | 0.385 | 0.35 | 0.311 | 0.334 | 0.356 |
| NCI-H1755 | 1.01 | 0.995 | 0.951 | 0.99 | 0.989 | 0.617 | 0.605 | 0.62 | 0.502 | 0.534 | 0.984 | 0.997 | 0.998 | 1.04 | 0.871 | 0.601 | 0.6 | 0.586 | 0.584 | 0.599 |
| NCI-H1793 | 0.86 | 0.771 | 0.785 | 0.859 | 0.764 | 0.329 | 0.337 | 0.333 | 0.501 | 0.234 | 0.432 | 0.335 | 0.326 | 0.511 | 0.313 | 0.378 | 0.307 | 0.378 | 0.32 | 0.227 |
| NCI-H1915 | 0.982 | 1.02 | 0.956 | 0.933 | 0.856 | 0.486 | 0.437 | 0.43 | 0.444 | 0.315 | 0.776 | 0.779 | 0.759 | 0.8 | 0.618 | 0.448 | 0.403 | 0.376 | 0.373 | 0.328 |
| NCI-H1944 | 0.983 | 0.947 | 0.898 | 0.73 | 0.707 | 0.263 | 0.242 | 0.235 | 0.225 | 0.234 | 0.987 | 1.01 | 0.946 | 1.11 | 0.871 | 0.188 | 0.22 | 0.168 | 0.178 | 0.168 |
| NCI-H1975 | 0.949 | 0.822 | 0.993 | 0.8 | 0.843 | 0.777 | 0.769 | 0.704 | 0.681 | 0.296 | 1 | 0.959 | 1.05 | 1.12 | 0.878 | 0.386 | 0.335 | 0.392 | 0.312 | 0.236 |
| NCI-H1993 | 0.979 | 0.761 | 0.884 | 0.723 | 0.633 | 0.546 | 0.578 | 0.596 | 0.541 | 0.508 | 0.937 | 0.635 | 0.927 | 0.962 | 0.849 | 0.551 | 0.54 | 0.496 | 0.474 | 0.456 |
| NCI-H2009 | 1.03 | 1.16 | 1.03 | 0.996 | 0.994 | 0.767 | 0.742 | 0.809 | 0.69 | 0.635 | 1.14 | 1.17 | 1.13 | 1.2 | 1.08 | 0.487 | 0.599 | 0.498 | 0.474 | 0.493 |
| NCI-H2023 | 0.989 | 0.956 | 0.964 | 0.857 | 0.725 | 0.393 | 0.357 | 0.337 | 0.36 | 0.22 | 0.895 | 0.853 | 0.967 | 0.949 | 0.891 | 0.41 | 0.417 | 0.411 | 0.468 | 0.312 |
| NCI-H2085 | 1.01 | 1.04 | 1.01 | 0.961 | 0.873 | 0.807 | 0.96 | 0.737 | 0.619 | 0.664 | 1.13 | 1.16 | 1.14 | 1.05 | 0.965 | 0.714 | 0.658 | 0.692 | 0.71 | 0.611 |
| NCI-H2087 | 1.03 | 1.08 | 0.956 | 0.836 | 0.791 | 0.252 | 0.234 | 0.242 | 0.231 | 0.192 | 0.914 | 0.879 | 0.991 | 0.879 | 0.696 | 0.537 | 0.495 | 0.411 | 0.41 | 0.385 |
| NCI-H2126 | 0.965 | 0.931 | 0.961 | 0.663 | 0.829 | 0.868 | 0.823 | 0.846 | 0.676 | 0.736 | 0.817 | 0.799 | 0.844 | 0.878 | 0.787 | 0.518 | 0.489 | 0.518 | 0.359 | 0.467 |
| NCI-H2170 | 0.93 | 0.697 | 0.897 | 0.997 | 0.946 | 0.728 | 0.707 | 0.589 | 0.83 | 0.507 | 0.671 | 0.338 | 0.596 | 0.667 | 0.523 | 0.393 | 0.489 | 0.354 | 0.436 | 0.411 |
| NCI-H2228 | 0.974 | 0.88 | 1.01 | 0.923 | 0.753 | 0.313 | 0.318 | 0.267 | 0.241 | 0.178 | 0.562 | 0.447 | 0.913 | 0.735 | 0.653 | 0.322 | 0.209 | 0.287 | 0.275 | 0.257 |

— the supplement of paper PMC10307832
